Laboratory results as given in patent US20150291625A1 (PFIZER INC., priority 2012, published 2015).
“And” between values parts separate entries of the source, which are not always exact repeats. Identical values can stand only once. Counter-ions that a name gives are not always drawn.

How the values were obtained:
[1] = target: T1, D1 (Homo sapiens, UniProt P21728); assay: D1 cAMP HTRF assay (HEK293T/hD1#1 stable cell line); type: cell-based; parameters: expressed in transfected cells
Procedure, shortened: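 Agonist-mode HTRF cAMP assay in HEK293T/hD1#1 stable cells resuspended in PBS with 0.5 μM IBMX; compound exposure 30 min at room temperature, then cAMP-D2 and anti-cAMP-cryptate detection for 1 h. EC50 from raw ratio data or from cAMP levels interpolated on a standard curve; percent effect versus controls.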

[2] = target: T1, D1; assay: Human D1 receptor binding assay ([3H]-SCH23390 competition); conditions: Human D1 Receptor Binding, Ki (nM), Geometric mean of 2-4 determinations, a: >=5 determinations, d: single determination

T1 sequence (P21728 whole entry): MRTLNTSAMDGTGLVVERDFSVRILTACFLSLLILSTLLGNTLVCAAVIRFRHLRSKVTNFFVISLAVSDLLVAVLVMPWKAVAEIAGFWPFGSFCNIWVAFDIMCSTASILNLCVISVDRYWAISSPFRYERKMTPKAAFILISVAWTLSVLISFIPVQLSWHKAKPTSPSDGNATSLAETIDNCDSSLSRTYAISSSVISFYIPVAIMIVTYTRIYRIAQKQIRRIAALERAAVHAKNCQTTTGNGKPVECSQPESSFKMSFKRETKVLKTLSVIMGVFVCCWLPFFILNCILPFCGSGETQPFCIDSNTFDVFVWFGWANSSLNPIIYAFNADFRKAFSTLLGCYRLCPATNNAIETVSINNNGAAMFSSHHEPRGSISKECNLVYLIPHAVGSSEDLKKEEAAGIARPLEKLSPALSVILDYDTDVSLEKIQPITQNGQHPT

| EC50 [1] | Ki [2] | SMILES |
| --- | --- | --- |
| 714 nM | 84.6 nM | Cc1cc(Oc2nccc3occc23)ccc1-c1c(C)ncn1C [Example 102, 4-[4-(1,4-dimethyl-1H-imidazol-5-yl)-3-methylphenoxy]furo[3,2-c]pyridine] |
| 392 nM and 870 nM | 23.9 nM | Cc1cc(Oc2nccc3occc23)cc(C)c1-c1c(C)ncnc1C [Example 103, 4-[4-(4,6-dimethylpyrimidin-5-yl)-3,5-dimethylphenoxy]furo[3,2-c]pyridine] |
| 502 nM | 24.1 nM | Cc1cc(Oc2nccc3occc23)ccc1-c1c(C)cncc1C [Example 104, 4-[4-(3,5-dimethylpyridin-4-yl)-3-methylphenoxy]furo[3,2-c]pyridine] |
| 669 nM | 26.2 nM | COc1nc(C)c(-c2ccc(Oc3nccc4occc34)cc2C)n2ccnc12 [Example 107, 5-[4-(furo[3,2-c]pyridin-4-yloxy)-2-methylphenyl]-8-methoxy-6-methylimidazo[1,2-a]pyrazine] |
| 673 nM | 55.5 nM | Cc1ncnc(C)c1-c1ccc(Oc2nccc3occc23)cc1OCc1nc(C2CC2)no1 [Example 108, 4-{3-[(3-cyclopropyl-1,2,4-oxadiazol-5-yl)methoxy]-4-(4,6-dimethylpyrimidin-5-yl)phenoxy}furo[3,2-c]pyridine] |
| 429 nM | 57.5 nM | Cc1cc(Oc2nccc3occc23)ccc1-c1c(C)nc(C)c2nccn12 [Example 109, 5-[4-(furo[3,2-c]pyridin-4-yloxy)-2-methylphenyl]-6,8-dimethylimidazo[1,2-a]pyrazine] |
| 33.8 nM | 2.89 nM | Cc1cc(Oc2nccc3occc23)ccc1-c1c(C)cnc2nccn12 [Example 110, 5-[4-(furo[3,2-c]pyridin-4-yloxy)-2-methylphenyl]-6-methylimidazo[1,2-a]pyrimidine] |
| 335 nM | 41.2 nM | Cc1cc(Oc2nccc3occc23)ccc1-c1nc2nccn2cc1C [Example 111, 7-[4-(furo[3,2-c]pyridin-4-yloxy)-2-methylphenyl]-6-methylimidazo[1,2-a]pyrimidine] |
| 156 nM | 13.8 nM | Cc1cc(Oc2nccc3occc23)ccc1-c1c(C)nc(N)c2nccn12 [Example 112, 5-[4-(furo[3,2-c]pyridin-4-yloxy)-2-methylphenyl]-6-methylimidazo[1,2-a]pyrazin-8-amine] |
| 1020 nM | 133 nM | COc1cc(Oc2nccc3occc23)ccc1-c1cc(N)cnc1C [Example 113, 5-[4-(furo[3,2-c]pyridin-4-yloxy)-2-methoxyphenyl]-6-methylpyridin-3-amine] |
| 103 nM | 21.2 nM | Cc1ncnc(C)c1-c1c(F)cc(Oc2nccc3occc23)cc1F [Example 114, 4-[4-(4,6-dimethylpyrimidin-5-yl)-3,5-difluorophenoxy]furo[3,2-c]pyridine] |
| 777 nM | 194 nM | Cc1cc(Oc2nccc3occc23)ccc1-c1c(C)cnn2c(=O)[nH]nc12 [Example 115, 8-[4-(furo[3,2-c]pyridin-4-yloxy)-2-methylphenyl]-7-methyl[1,2,4]triazolo[4,3-b]pyridazin-3(2H)-one] |
| 3440 nM | 481 nM | Cc1ncnc(C)c1-c1ccc(Oc2nccc3occc23)c2ccncc12 [Example 116, 8-(4,6-dimethylpyrimidin-5-yl)-5-(furo[3,2-c]pyridin-4-yloxy)isoquinoline] |
| 452 nM | 23.1 nM | Cc1cc(Oc2nccc3occc23)ccc1-c1c(C)nc(C)c(=O)n1C [Example 117, 6-[4-(furo[3,2-c]pyridin-4-yloxy)-2-methylphenyl]-1,3,5-trimethylpyrazin-2(1H)-one] |
| > 30000 nM | > 986 nM | Cc1cc(Oc2nccc3occc23)ccc1-c1c(C)ncnc1C(=O)O [Example 118, 5-[4-(furo[3,2-c]pyridin-4-yloxy)-2-methylphenyl]-6-methylpyrimidine-4-carboxylic acid] |
| > 11200 nM | 2240 nM | c1cc2occc2c(Oc2ccc(-c3nccc4occc34)cc2)n1 [Example 119, 4-[4-(furo[3,2-c]pyridin-4-yloxy)phenyl]furo[3,2-c]pyridine] |
| 4590 nM | 211 nM | Cc1ncncc1-c1ccc(Oc2nccc3occc23)cc1C(C)(C)C#N [Example 122, 2-[5-(furo[3,2-c]pyridin-4-yloxy)-2-(4-methylpyrimidin-5-yl)phenyl]-2-methylpropanenitrile] |
| 188 nM | 29.4 nM | Cc1cc(Oc2nccc3occc23)ccc1-c1c(C)cnc(=O)n1C [Example 124, 6-[4-(furo[3,2-c]pyridin-4-yloxy)-2-methylphenyl]-1,5-dimethylpyrimidin-2(1H)-one] |
| 91.7 nM | 23 nM | Cc1cc(Oc2nccc3occc23)ccc1-c1cn[nH]c(=O)c1C [Example 125, 5-[4-(furo[3,2-c]pyridin-4-yloxy)-2-methylphenyl]-4-methylpyridazin-3(2H)-one] |

| EC50 [1] | Ki [2] | SMILES |
| --- | --- | --- |
| 546 nM | 39.9 nM | Cc1cc(Oc2nccc3occc23)ccc1-c1cccc(=O)n1C [Example 126, 6-[4-(furo[3,2-c]pyridin-4-yloxy)-2-methylphenyl]-1-methylpyridin-2(1H)-one] |
| 127 nM | 14 nM | Cc1ncnc(C)c1-c1ccc(Oc2nccc3occc23)cc1Cl [Example 127, 4-[3-chloro-4-(4,6-dimethylpyrimidin-5-yl)phenoxy]furo[3,2-c]pyridine] |
| 5480 nM | 379 nM | Cc1ncnc(C)c1-c1cc(F)c(Oc2nccc3occc23)c(F)c1 [Example 128, 4-[4-(4,6-dimethylpyrimidin-5-yl)-2,6-difluorophenoxy]furo[3,2-c]pyridine] |
| 268 nM | 32.3 nM | Cc1cc(Oc2nccc3occc23)c(F)cc1-c1c(C)ncnc1C [Example 129, 4-[4-(4,6-dimethylpyrimidin-5-yl)-2-fluoro-5-methylphenoxy]furo[3,2-c]pyridine] |
| 1050 nM | 73 nM | Cc1ncnc(C)c1-c1ccc(Oc2nccc3occc23)c(F)c1 [Example 130, 4-[4-(4,6-dimethylpyrimidin-5-yl)-2-fluorophenoxy]furo[3,2-c]pyridine] |
| 1550 nM | 135 nM | Cc1ncnc(C)c1-c1ccc(Oc2nccc3occc23)c(F)c1C [Example 131, 4-[4-(4,6-dimethylpyrimidin-5-yl)-2-fluoro-3-methylphenoxy]furo[3,2-c]pyridine] |
| 2260 nM | 39.9 nM | Cc1cc(Nc2nccc3occc23)ccc1-c1c(C)ncnc1C [Example 132, N-[4-(4,6-dimethylpyrimidin-5-yl)-3-methylphenyl]furo[3,2-c]pyridin-4-amine, formate salt] |
| 172 nM | 31.5 nM | Cc1cc(Oc2nccc3occc23)ccc1-c1c(C)c(O)nc2nccn12 [Example 133, 5-[4-(furo[3,2-c]pyridin-4-yloxy)-2-methylphenyl]-6-methylimidazo[1,2-a]pyrimidin-7-ol] |
| 2410 nM | 225 nM | Cc1cc(Oc2nccc3occc23)ccc1-c1nc(O)cnc1C [Example 136, 6-[4-(furo[3,2-c]pyridin-4-yloxy)-2-methylphenyl]-5-methylpyrazin-2-ol] |
| 209 nM | 42 nM | Cc1cc(Oc2nccc3occc23)ccc1-c1ccc(O)c2nccn12 [Example 137, 5-[4-(furo[3,2-c]pyridin-4-yloxy)-2-methylphenyl]imidazo[1,2-a]pyridin-8-ol] |
| 287 nM | 119 nM | Cc1ncnc(C)c1-c1cc(F)c(Oc2nccc3occc23)cc1F [Example 139, 4-[4-(4,6-dimethylpyrimidin-5-yl)-2,5-difluorophenoxy]furo[3,2-c]pyridine] |
| 292 nM | 48 nM | Cc1cnnc(C)c1-c1ccc(Oc2nccc3occc23)cc1F [Example 140, 4-[4-(3,5-dimethylpyridazin-4-yl)-3-fluorophenoxy]furo[3,2-c]pyridine] |
| 298 nM | 69.9 nM | Cc1ncnc(C)c1-c1ccc(Oc2nccc3occc23)c(F)c1F [Example 141, 4-[4-(4,6-dimethylpyrimidin-5-yl)-2,3-difluorophenoxy]furo[3,2-c]pyridine] |
| 3490 nM | 246 nM | Cc1ncnc(C)c1-c1ccc(Oc2nccc3occc23)c2cn(C)nc12 [Example 144, 4-{[7-(4,6-dimethylpyrimidin-5-yl)-2-methyl-2H-indazol-4-yl]oxy}furo[3,2-c]pyridine] |
| 1440 nM | 110 nM | Cc1cc(Oc2nccc3occc23)ccc1-c1ccnnc1C [Example 145, 4-[3-methyl-4-(3-methylpyridazin-4-yl)phenoxy]furo[3,2-c]pyridine] |
| 777 nM | 111 nM | Cc1ncnc(C)c1-c1ccc(Oc2nccc3occc23)c2cnn(C)c12 [Example 148, 4-{[7-(4,6-dimethylpyrimidin-5-yl)-1-methyl-1H-indazol-4-yl]oxy}furo[3,2-c]pyridine, trifluoroacetate salt] |
| 464 nM | 31.4 nM | COc1nc(C)c(-c2ccc(Oc3nccc4occc34)cc2C)c(C)n1 [Example 149, 4-[4-(2-methoxy-4,6-dimethylpyrimidin-5-yl)-3-methylphenoxy]furo[3,2-c]pyridine] |
| 443 nM | 67 nM | Cc1cnnc(C)c1-c1ccc(Oc2nccc3occc23)cc1 [Example 150, 4-[4-(3,5-dimethylpyridazin-4-yl)phenoxy]furo[3,2-c]pyridine] |
| 1120 nM | 101 nM | Cc1cc(Oc2nccc3occc23)ccc1-c1c(C)cnnc1N(C)C [Example 151, 4-[4-(furo[3,2-c]pyridin-4-yloxy)-2-methylphenyl]-N,N,5-trimethylpyridazin-3-amine, trifluoroacetate salt] |
